The text below walks through data of ChEMBL document CHEMBL5465560, “Selectivity Literature for EUbOPEN Chemogenomic Library” (2024).

Test [1] has as its target STE20-like serine/threonine-protein kinase (Homo sapiens, UniProt Q9H2G2). The experiment in a line: Selectivity interaction (LanthaScreen Eu Kinase Binding Assay) EUB0001632a SLK. Particulars: at 10 µM. (In general: TR-FRET usually uses a lanthanide donor and a delayed reading to cut background.)
The target of test [2] is Serine/threonine-protein kinase PAK 2 (Homo sapiens) (UniProt Q13177). The experiment in a line: Selectivity interaction (Kinase panel (Z-LYTE Assay)) EUB0001632a PAK2. Particulars: at 10 µM.
The target of test [3] is Mitogen-activated protein kinase kinase kinase 1 (Homo sapiens, UniProt Q13233). The test is described as follows: Selectivity interaction (KinomeScan (DiscoverX)) EUB0000607a MAP3K1. Particulars: at 10 µM.
In test [4] the target is Tyrosine-protein kinase HCK (Homo sapiens) (UniProt P08631). The experiment in a line: Selectivity interaction (ActivX KiNativ screen (kinase selectivity in THP-1 cell lysates)) EUB0000639a HCK. Type of test: subcellular. Particulars: lysate, at 5 µM.
In test [5] the target is T1, Serine/threonine-protein kinase 3 (Homo sapiens) (UniProt Q13188).
T1 sequence (whole entry): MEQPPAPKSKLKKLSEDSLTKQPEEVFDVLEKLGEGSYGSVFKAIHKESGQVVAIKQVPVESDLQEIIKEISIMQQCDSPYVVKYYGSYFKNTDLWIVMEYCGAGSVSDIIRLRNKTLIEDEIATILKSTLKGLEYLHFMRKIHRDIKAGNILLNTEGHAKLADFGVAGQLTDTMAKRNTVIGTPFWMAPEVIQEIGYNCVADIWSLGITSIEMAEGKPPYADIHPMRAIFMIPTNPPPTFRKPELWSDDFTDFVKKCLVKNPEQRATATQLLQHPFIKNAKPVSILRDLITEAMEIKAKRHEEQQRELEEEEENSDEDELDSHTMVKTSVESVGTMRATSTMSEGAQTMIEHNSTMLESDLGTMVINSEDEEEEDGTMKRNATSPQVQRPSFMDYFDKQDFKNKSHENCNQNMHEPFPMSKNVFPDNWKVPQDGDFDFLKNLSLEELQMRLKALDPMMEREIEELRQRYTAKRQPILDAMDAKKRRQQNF
The test is described as follows: Selectivity interaction (ActivX KiNativ screen (kinase selectivity in THP-1 cell lysates)) EUB0000639a STK3. Type of test: subcellular. Particulars: lysate, at 0.01 µM.

Test [6] has as its target Platelet-derived growth factor receptor beta (Homo sapiens, UniProt P09619). The test is described as follows: Selectivity interaction (ProQinase) EUB0000171b PDGFRB.
In test [7] the target is T2, Serine/threonine-protein kinase ICK (Homo sapiens) (UniProt Q9UPZ9).
T2 sequence (whole entry): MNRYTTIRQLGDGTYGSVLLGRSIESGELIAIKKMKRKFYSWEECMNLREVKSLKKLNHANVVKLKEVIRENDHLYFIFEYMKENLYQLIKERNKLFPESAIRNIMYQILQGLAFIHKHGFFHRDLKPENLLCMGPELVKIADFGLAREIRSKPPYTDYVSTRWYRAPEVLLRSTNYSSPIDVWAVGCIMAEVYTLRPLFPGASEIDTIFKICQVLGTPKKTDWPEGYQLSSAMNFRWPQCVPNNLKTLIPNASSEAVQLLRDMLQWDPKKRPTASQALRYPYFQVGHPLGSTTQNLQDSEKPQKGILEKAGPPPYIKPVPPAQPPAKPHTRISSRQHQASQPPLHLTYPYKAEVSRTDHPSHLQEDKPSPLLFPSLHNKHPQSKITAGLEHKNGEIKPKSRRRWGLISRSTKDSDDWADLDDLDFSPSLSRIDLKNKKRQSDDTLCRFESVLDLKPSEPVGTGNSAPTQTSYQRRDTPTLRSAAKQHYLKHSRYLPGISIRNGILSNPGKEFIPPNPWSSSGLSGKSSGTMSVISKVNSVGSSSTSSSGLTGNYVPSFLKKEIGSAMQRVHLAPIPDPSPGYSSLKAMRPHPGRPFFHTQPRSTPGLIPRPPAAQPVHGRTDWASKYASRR
The experiment in a line: Selectivity interaction (KinomeScan (DiscoverX)) EUB0001049a ICK. The note with it: at 1 µM.

The target in test [8] is T3, Dual specificity mitogen-activated protein kinase kinase 6 (Homo sapiens) (UniProt P52564).
T3 sequence (whole entry): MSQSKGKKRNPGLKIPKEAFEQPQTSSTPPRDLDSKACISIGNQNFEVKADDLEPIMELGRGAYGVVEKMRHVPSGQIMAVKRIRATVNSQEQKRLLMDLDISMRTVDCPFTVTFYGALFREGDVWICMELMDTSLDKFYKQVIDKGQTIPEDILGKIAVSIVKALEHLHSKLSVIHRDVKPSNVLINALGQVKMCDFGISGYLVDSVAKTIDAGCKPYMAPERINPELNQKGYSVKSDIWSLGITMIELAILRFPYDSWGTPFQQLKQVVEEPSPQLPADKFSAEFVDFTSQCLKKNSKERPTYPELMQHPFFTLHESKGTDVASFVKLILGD
The experiment in a line: Selectivity interaction (KinomeScan (DiscoverX)) EUB0001049a MAP2K6. The note with it: at 1 µM.

The target in test [9] is Fibroblast growth factor receptor 1 (Homo sapiens, UniProt P11362). The experiment in a line: Selectivity interaction (Upstate Kinase Profiler service (Millipore)) EUB0000056c FGFR1. Particulars: at 1 µM.
The target in test [10] is T4, Cyclin-dependent kinase 11A (Homo sapiens) (UniProt Q9UQ88).
T4 sequence (whole entry): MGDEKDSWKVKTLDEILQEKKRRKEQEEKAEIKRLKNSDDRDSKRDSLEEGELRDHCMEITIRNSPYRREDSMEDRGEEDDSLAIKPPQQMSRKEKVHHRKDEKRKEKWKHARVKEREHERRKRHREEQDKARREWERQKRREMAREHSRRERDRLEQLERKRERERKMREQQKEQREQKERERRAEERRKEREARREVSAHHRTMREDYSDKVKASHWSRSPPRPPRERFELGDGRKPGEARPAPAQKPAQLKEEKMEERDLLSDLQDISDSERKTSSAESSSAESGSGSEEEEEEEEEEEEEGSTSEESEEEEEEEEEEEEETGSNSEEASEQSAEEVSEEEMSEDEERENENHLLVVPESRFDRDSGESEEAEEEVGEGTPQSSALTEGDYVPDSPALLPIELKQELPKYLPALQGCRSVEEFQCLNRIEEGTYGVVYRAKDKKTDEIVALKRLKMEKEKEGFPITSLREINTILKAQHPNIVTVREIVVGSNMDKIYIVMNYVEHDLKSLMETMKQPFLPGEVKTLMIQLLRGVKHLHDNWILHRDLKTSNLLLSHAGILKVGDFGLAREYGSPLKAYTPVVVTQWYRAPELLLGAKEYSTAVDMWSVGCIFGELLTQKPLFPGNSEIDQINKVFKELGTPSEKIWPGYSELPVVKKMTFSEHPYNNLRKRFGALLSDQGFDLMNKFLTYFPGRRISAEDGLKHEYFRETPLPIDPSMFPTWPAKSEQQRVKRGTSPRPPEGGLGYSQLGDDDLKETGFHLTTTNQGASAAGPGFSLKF
The test is described as follows: Selectivity interaction (KinomeScan (DiscoverX)) EUB0000092b CDK11A. The note with it: at 10 µM.

The target of test [11] is Casein kinase I isoform gamma-1 (Homo sapiens) (UniProt Q9HCP0). The experiment in a line: Selectivity interaction (Kinase panel (KiNativ target engagement assay in Jurkat cells)) EUB0001635a CSNK1G1. Type of test: cell-based. Particulars: at 1 µM.

Structures are written as SMILES.

Sequence of Platelet-derived growth factor receptor beta (P09619 whole entry): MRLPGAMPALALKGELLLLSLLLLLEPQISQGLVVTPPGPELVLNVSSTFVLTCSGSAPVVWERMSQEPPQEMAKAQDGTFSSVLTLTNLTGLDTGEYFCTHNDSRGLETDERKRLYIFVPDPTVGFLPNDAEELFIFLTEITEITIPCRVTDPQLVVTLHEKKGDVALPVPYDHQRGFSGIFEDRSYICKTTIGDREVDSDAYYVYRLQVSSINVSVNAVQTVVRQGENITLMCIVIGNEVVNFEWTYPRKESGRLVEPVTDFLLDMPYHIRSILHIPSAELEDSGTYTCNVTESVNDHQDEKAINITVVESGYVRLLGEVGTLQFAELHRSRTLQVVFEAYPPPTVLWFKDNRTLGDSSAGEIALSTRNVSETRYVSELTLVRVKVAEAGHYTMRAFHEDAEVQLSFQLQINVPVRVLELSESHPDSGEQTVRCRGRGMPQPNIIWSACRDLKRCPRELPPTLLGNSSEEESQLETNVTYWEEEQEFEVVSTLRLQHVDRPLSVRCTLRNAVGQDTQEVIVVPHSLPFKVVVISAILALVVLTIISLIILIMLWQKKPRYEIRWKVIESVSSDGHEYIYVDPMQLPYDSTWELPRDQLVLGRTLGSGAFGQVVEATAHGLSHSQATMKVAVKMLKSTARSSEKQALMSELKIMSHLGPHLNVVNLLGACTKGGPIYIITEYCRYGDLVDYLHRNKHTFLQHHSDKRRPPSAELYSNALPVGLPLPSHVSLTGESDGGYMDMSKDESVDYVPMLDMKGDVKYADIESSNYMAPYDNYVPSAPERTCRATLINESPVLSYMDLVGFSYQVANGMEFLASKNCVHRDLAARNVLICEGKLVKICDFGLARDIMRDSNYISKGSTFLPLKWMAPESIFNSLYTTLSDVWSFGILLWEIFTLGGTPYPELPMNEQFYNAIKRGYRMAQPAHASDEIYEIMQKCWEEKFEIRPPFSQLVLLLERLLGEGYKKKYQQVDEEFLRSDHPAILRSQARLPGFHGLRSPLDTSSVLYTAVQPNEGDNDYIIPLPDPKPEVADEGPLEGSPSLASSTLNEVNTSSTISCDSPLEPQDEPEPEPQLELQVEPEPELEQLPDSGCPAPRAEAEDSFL
Sequence of Tyrosine-protein kinase HCK (Homo sapiens) (P08631 2-526 limits assumed): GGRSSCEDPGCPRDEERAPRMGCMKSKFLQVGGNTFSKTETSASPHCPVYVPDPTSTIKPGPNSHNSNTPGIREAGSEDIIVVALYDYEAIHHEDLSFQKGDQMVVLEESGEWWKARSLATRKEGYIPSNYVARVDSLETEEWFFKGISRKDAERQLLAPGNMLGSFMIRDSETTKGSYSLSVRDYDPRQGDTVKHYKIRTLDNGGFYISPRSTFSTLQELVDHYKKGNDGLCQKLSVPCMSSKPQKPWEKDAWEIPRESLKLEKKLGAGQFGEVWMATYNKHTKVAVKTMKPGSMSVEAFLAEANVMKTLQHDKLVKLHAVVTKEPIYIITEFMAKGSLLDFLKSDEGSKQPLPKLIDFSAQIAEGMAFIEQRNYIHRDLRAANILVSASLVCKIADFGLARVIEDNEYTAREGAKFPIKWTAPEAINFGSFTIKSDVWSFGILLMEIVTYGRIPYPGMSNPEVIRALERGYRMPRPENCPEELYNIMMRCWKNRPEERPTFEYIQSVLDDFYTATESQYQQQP
Sequence of Serine/threonine-protein kinase PAK 2 (Homo sapiens) (Q13177 whole entry): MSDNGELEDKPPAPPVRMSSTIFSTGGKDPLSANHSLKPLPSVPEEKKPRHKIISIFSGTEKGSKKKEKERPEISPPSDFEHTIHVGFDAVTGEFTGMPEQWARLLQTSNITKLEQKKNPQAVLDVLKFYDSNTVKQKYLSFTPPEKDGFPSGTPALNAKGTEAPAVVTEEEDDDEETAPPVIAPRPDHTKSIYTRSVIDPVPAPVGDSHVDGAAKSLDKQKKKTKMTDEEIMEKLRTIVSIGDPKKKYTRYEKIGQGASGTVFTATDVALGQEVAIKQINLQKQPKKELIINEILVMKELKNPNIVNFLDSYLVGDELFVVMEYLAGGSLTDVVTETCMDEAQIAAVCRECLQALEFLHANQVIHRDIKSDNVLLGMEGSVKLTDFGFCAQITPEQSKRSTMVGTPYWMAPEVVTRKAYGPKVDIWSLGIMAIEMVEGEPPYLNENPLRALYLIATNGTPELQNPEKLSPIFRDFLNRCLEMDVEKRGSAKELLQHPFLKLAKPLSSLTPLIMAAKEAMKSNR
Sequence of Casein kinase I isoform gamma-1 (Homo sapiens) (Q9HCP0 whole entry, looked up, canonical isoform): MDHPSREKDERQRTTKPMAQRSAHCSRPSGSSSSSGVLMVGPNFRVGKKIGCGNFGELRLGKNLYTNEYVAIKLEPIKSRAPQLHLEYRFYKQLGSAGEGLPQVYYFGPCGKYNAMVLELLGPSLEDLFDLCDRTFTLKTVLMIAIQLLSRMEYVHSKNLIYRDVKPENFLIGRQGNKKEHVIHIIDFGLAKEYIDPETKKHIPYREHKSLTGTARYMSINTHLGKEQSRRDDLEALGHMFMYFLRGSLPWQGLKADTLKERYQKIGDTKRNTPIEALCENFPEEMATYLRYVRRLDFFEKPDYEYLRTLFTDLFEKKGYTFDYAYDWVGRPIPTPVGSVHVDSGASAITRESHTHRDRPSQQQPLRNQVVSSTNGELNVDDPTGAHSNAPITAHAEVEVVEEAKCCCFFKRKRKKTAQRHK
Sequence of Fibroblast growth factor receptor 1 (P11362 22-822 limits assumed): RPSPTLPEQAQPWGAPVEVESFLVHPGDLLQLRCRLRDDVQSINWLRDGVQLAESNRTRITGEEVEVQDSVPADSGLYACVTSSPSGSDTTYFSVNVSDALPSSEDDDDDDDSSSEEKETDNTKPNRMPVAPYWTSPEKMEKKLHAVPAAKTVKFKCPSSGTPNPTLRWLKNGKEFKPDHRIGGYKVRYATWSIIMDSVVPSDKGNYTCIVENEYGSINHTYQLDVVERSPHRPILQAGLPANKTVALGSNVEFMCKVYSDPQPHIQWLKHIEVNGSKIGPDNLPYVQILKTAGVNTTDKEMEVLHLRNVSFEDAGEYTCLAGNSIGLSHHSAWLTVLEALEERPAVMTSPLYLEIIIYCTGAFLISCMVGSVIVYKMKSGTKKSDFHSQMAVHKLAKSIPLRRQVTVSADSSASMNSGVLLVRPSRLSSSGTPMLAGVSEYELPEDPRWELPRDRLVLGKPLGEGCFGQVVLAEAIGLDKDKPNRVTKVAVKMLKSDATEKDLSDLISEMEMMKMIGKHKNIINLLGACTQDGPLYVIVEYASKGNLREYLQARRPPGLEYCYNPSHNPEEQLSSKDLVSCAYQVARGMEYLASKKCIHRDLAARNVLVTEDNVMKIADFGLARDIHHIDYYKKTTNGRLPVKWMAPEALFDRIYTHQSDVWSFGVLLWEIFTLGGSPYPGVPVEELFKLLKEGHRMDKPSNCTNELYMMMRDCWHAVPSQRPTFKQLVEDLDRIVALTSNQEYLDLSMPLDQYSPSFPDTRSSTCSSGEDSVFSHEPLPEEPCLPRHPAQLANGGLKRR
Sequence of Mitogen-activated protein kinase kinase kinase 1 (Q13233 whole entry): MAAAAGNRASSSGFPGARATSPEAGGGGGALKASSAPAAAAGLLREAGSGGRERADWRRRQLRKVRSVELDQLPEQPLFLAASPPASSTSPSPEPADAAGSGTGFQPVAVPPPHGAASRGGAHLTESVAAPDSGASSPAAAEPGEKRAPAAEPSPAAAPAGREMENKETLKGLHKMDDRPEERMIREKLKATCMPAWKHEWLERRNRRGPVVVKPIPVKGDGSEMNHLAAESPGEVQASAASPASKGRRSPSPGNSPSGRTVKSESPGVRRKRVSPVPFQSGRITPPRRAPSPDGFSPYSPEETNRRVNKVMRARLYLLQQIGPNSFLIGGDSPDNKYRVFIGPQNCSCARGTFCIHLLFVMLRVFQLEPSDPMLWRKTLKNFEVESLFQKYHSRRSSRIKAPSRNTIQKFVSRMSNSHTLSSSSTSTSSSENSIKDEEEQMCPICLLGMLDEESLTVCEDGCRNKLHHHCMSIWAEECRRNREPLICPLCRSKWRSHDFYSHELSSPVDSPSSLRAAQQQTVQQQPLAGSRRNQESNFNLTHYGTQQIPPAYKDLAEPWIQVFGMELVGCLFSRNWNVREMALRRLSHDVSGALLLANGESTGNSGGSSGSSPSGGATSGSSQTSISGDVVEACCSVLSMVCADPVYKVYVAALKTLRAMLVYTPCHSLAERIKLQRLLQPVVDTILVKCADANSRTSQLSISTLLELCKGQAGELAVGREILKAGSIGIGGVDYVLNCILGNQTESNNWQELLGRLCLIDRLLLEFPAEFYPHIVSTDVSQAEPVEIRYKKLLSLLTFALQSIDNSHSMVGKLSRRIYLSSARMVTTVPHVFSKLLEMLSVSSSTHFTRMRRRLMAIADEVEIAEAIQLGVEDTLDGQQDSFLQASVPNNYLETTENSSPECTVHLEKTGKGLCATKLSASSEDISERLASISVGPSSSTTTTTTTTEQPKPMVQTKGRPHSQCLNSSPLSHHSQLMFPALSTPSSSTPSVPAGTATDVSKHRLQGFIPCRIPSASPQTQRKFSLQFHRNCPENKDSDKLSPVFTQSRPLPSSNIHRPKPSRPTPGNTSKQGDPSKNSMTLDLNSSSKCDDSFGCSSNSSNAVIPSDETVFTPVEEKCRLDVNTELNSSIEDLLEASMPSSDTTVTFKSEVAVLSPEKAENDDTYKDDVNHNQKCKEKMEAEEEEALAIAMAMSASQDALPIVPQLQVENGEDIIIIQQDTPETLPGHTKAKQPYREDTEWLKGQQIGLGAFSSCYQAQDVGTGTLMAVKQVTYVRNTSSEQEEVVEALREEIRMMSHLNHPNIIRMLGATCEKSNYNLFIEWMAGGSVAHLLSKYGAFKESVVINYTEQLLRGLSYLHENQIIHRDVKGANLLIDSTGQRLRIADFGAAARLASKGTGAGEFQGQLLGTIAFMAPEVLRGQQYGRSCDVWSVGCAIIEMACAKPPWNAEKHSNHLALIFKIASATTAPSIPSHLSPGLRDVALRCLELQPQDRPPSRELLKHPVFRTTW

For the compound `Cn1cc(-n2cnc3c(NCc4nc5cc(Cl)c(Cl)cc5[nH]4)nc(N4CCOCC4)nc32)cn1`, in [1], the % of inhibition is -1.88%. In addition, the % of control in test [2] was -1.61%.
`CNC(=O)Nc1ccc(-c2nc(N3CC4CCC(C3)O4)c3cnn(C4CCC5(CC4)OCCO5)c3n2)cc1`: the % of control in test [3] stood at 58%.
Turning to `CC[C@@H]1[C@H](F)C(=O)N[C@@H]1COc1nccc2cc(C(N)=O)c(OC)cc12` [ZIMLOVISERTIB], the results for the % of inhibition in test [4] and in test [5] were -20.3% and -19.5%, respectively.
`C=CC(=O)Nc1cccc(C(=O)Nc2ccc(Nc3cc(-c4[nH]c(SC)nc4C)ccn3)cc2)c1`: the % of control in test [6] (at 1 µM) worked out at 74%; in test [6] (at 5 µM), 46%.
For the compound `COc1cc(Nc2nc(C)cc(-c3cnn4nc(OC)ccc34)n2)cc(C(F)(F)F)c1`, the % of control in [7] was determined as 85%; in test [8] it was 100%.
As to `Cc1ccc(-c2ccc3c(ccc4sc5c(c43)NC[C@@H](C)NC5=O)n2)cn1`, the % of inhibition in test [9] amounted to 3%.
As to `CCC(=O)N1CCN(c2ccc(-n3c(=O)ccc4cnc5ccc(-c6cnc7ccccc7c6)cc5c43)cc2C(F)(F)F)CC1`, the % of control in test [10] is 1.2%.
Take `C=CC(=O)Nc1ccc(C(=O)Nc2[nH]nc3c2CN(C(=O)N[C@H](CN(C)C)c2ccccc2)C3(C)C)cc1`: in test [11], the % of engagement is -7.7%.
